Key:
Septoria tritici = test: Test of Preventive Effect on Wheat Leaf Blotch; type: in vivo; conditions: wheat (Apogee), foliage application 500 ppm, inoculation after 3 or 4 days, 18° C. high humidity 3 days then lighting 14 to 18 days
Description: (§1) In the following Test Examples, foliage application was accomplished by spraying each test solution over a different plant.
(§2) The controlling effect was evaluated by visually observing the area or lesion spots on each of test plants at the time of investigation and comparing the area of lesion spots on a plant treated with the present compound with that on an untreated plant.
Each of plastic pots was filled with sandy loam and sown with wheat (cultivar: Apogee), followed by growing in a greenhouse for 10 days. Each of the present compounds 49 to 52 was formulated into a flowable formulation according to Formulation Example 6. The flowable formulation was diluted to a predetermined concentration (500 ppm) with water, and foliage application of the dilution was carried out so that the dilution could adhere sufficiently to the surfaces of leaves of the grown wheat seedling. After the application, the plant was air-dried. After 3 or 4 days, the plant was inoculated by spraying a water suspension of spores of Septoria tritici. After the inoculation, the plant was held under high humidity conditions at 18° C. for 3 days and then under lighting condition for 14 to 18 days. Then, the area of lesion spots was investigated.

Stagonospora nodorum = test: Test of Preventive Effect on Wheat Glume Blotch; type: in vivo; conditions: wheat (Shirogane), foliage application 500 ppm before inoculation, 18° C. 4 days dark high humidity then 4 days lighting
Description: as §1, §2
Each of plastic pots was filled with sandy loam and sown with wheat (cultivar; Shirogane), followed by growing in a greenhouse for 10 days.
Each of the present compounds 1 and 3 to 37 was formulated into a flowable formulation according to Formulation Example 6. The flowable formulation was diluted to a predetermined concentration (500 ppm) with water, and foliage application of the dilution was carried out so that the dilution could adhere sufficiently to the surfaces of leaves of the grown wheat seedling.
The wheat which was applied by the dilution was air-dried and then inoculated by spraying a water suspension of spores of Stagonospora nodorum.
After the inoculation, the plant was held under darkness and high humidity conditions at 18° C. for 4 days and then under lighting conditions for 4 days, and then the area of lesion spots was investigated.

| Structure (SMILES) | area of lesion spots on the treated plant relative to that on an untreated plant (Septoria tritici) [%] | area of lesion spots on the treated plant relative to that on an untreated plant (Stagonospora nodorum) [%] |
| --- | --- | --- |
| CC1CCCCC1NC(=O)c1cc(N)nc(F)c1 (centres unmarked) [compound 50] | ≤ 30 | – |
| O=C(NCC1CCCCC1)c1ccnc(F)c1 [compound 4] | – | ≤ 30 |
